Legend:
Type in all cases: in vivo
[1] = system: kochia (Bassia scoparia); test: Test A preemergence soil spray, visual injury rating 0-100; details: 10 days
Outline: (§1)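 Seeds sown in loam-sand blend got a preemergence directed soil spray, or emerged plants (2-10 cm, one- to two-leaf) got a postemergence spray, of compound in non-phytotoxic solvent with surfactant. After 10 days in greenhouse, injury rated visually versus untreated controls on a 0 (no effect) to 100 (complete control) scale.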

[2] = system: corn (Zea mays); test: as above; details: 10 days
Outline: as §1

[3] = system: wheat (Triticum aestivum); test: as above; details: 10 days
Outline: as §1

[4] = system: ryegrass, Italian (italian ryegrass, Lolium multiflorum); test: as above; details: 10 days
Outline: as §1

[5] = system: soybean (Glycine max); test: as above; details: 10 days
Outline: as §1

[6] = system: blackgrass (Alopecurus myosuroides); test: as above; details: 10 days
Outline: as §1

[7] = system: ragweed (common ragweed, Ambrosia artemisiifolia); test: as above; details: 10 days
Outline: as §1

[8] = system: green foxtail (Setaria viridis); test: as above; details: 10 days
Outline: as §1

[9] = system: palmer (palmer amaranth, palmer pigweed, Amaranthus palmeri); test: as above; details: 10 days
Outline: as §1

[10] = system: oat, wild (wild oat, Avena fatua); test: as above; details: 10 days
Outline: as §1

[11] = system: barnyardgrass (Echinochloa crus-galli); test: as above; details: 10 days
Outline: as §1

[12] = system: ducksalad (Heteranthera limosa); test: Test B flooded paddy test, visual plant response rating 0-100; details: 250 g ai/ha, Flood, applied to paddy water, evaluated after 13 days
Outline: (§2)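 Visual evaluation after 13 days. Water-applied treatment, 3 cm flood depth held constant, plants at 2-leaf stage at treatment.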

[13] = system: sedge, umbrella (small-flower umbrella sedge, Cyperus difformis); test: as above; details: 250 g ai/ha, Flood, applied to paddy water, evaluated after 13 days
Outline: as §2

[14] = system: rice (Oryza sativa); test: as above; details: 250 g ai/ha, Flood, applied to paddy water, evaluated after 13 days
Outline: as §2

[15] = system: barnyardgrass (Echinochloa crusgalli); test: as above; details: 250 g ai/ha, Flood, applied to paddy water, evaluated after 13 days
Outline: as §2

[16] = system: galium (catchweed bedstraw, Galium aparine); test: Test A postemergence application, visual injury rating 0-100
Outline: as §1

[17] = system: kochia (Bassia scoparia); test: as above
Outline: as §1

[18] = system: corn (Zea mays); test: as above
Outline: as §1

[19] = system: wheat (Triticum aestivum); test: as above
Outline: as §1

[20] = system: ryegrass, Italian (italian ryegrass, Lolium multiflorum); test: as above
Outline: as §1

[21] = system: soybean (Glycine max); test: as above
Outline: as §1

[22] = system: blackgrass (Alopecurus myosuroides); test: as above
Outline: as §1

[23] = system: ragweed (common ragweed, Ambrosia artemisiifolia); test: as above
Outline: as §1

[24] = system: green foxtail (Setaria viridis); test: as above
Outline: as §1

[25] = system: palmer (palmer amaranth, palmer pigweed, Amaranthus palmeri); test: as above
Outline: as §1

[26] = system: oat, wild (wild oat, Avena fatua); test: as above
Outline: as §1

[27] = system: horseweed (Erigeron canadensis); test: as above
Outline: as §1

[28] = system: barnyardgrass (Echinochloa crus-galli); test: as above
Outline: as §1

[29] = 62 g ai/ha, 0 = no effect, 100 = complete control
[30] = 62 g ai/ha, postemergence, 10 days, 0 = no effect, 100 = complete control
[31] = Postemergence, 16 g ai/ha, greenhouse 10 days, 0 no effect, 100 complete control

CC1(C(=O)NC2CC(C(=O)OCC(F)(F)F)C2)CN(c2cc(F)cc(F)c2)C(=O)O1 (stereo not shown) [Compound 121]
Kochia plant response rating ([1]; 16 g ai/ha, 0 to 100 scale): 0
Kochia plant response rating (0-100) [1, 29]: 70
Corn plant response rating ([2]; 16 g ai/ha, 0 to 100 scale): 20
Corn plant response rating (0-100) [2, 29]: 90
Wheat plant response rating ([3]; 16 g ai/ha, 0 to 100 scale): 40
Wheat plant response rating (0-100) [3, 29]: 80
Ryegrass, Italian plant response rating ([4]; 16 g ai/ha, 0 to 100 scale): 50
Ryegrass, Italian plant response rating (0-100) [4, 29]: 90
Soybean plant response rating ([5]; 16 g ai/ha, 0 to 100 scale): 0
Soybean plant response rating (0-100) [5, 29]: 0
Blackgrass plant response rating ([6]; 16 g ai/ha, 0 to 100 scale): 50
Blackgrass plant response rating (0-100) [6, 29]: 90
Ragweed plant response rating ([7]; 16 g ai/ha, 0 to 100 scale): 0
Ragweed plant response rating (0-100) [7, 29]: 0
Foxtail, Green plant response rating ([8]; 16 g ai/ha, 0 to 100 scale): 0
Foxtail, Green plant response rating (0-100) [8, 29]: 90
Pigweed, Palmer plant response rating ([9]; 16 g ai/ha, 0 to 100 scale): 0
Pigweed, Palmer plant response rating (0-100) [9, 29]: 70
Oat, Wild plant response rating ([10]; 16 g ai/ha, 0 to 100 scale): 90
Oat, Wild plant response rating (0-100) [10, 29]: 90
Barnyardgrass plant response rating ([11]; 16 g ai/ha, 0 to 100 scale): 0
Barnyardgrass plant response rating (0-100) [11, 29]: 80
Plant response rating, Ducksalad (0 to 100 scale, 0 is no effect and 100 is complete control) [12]: 0
Plant response rating, Sedge, Umbrella (0 to 100 scale, 0 is no effect and 100 is complete control) [13]: 0
Plant response rating, Rice (0 to 100 scale, 0 is no effect and 100 is complete control) [14]: 0
Plant response rating, Barnyardgrass (0 to 100 scale, 0 is no effect and 100 is complete control) [15]: 0
Galium plant response rating (0-100) [16, 30]: 60
Galium plant response rating (0 to 100 scale) [16, 31]: 30
Kochia plant response rating (0-100) [17, 30]: 70
Kochia plant response rating (0 to 100 scale) [17, 31]: 10
Corn plant response rating (0-100) [18, 30]: 100
Corn plant response rating (0 to 100 scale) [18, 31]: 100
Wheat plant response rating (0-100) [19, 30]: 90
Wheat plant response rating (0 to 100 scale) [19, 31]: 90
Ryegrass, Italian plant response rating (0-100) [20, 30]: 70
Ryegrass, Italian plant response rating (0 to 100 scale) [20, 31]: 20
Soybean plant response rating (0-100) [21, 30]: 70
Soybean plant response rating (0 to 100 scale) [21, 31]: 50
Blackgrass plant response rating (0-100) [22, 30]: 100
Blackgrass plant response rating (0 to 100 scale) [22, 31]: 90
Ragweed plant response rating (0-100) [23, 30]: 0
Ragweed plant response rating (0 to 100 scale) [23, 31]: 0
Foxtail, Green plant response rating (0-100) [24, 30]: 90
Foxtail, Green plant response rating (0 to 100 scale) [24, 31]: 70
Pigweed, Palmer plant response rating (0-100) [25, 30]: 70
Pigweed, Palmer plant response rating (0 to 100 scale) [25, 31]: 0
Oat, Wild plant response rating (0-100) [26, 30]: 90
Oat, Wild plant response rating (0 to 100 scale) [26, 31]: 40
Horseweed plant response rating (0-100) [27, 30]: 10
Horseweed plant response rating (0 to 100 scale) [27, 31]: 0
Barnyardgrass plant response rating (0-100) [28, 30]: 100
Barnyardgrass plant response rating (0 to 100 scale) [28, 31]: 60

— patent US20260285850A1, “SUBSTITUTED OXAZOLIDINONES AND IMIDAZOLINONES AS HERBICIDES” (FMC CORPORATION, priority 2023, published 2026)
